We go through 27 compounds from ChEMBL document CHEMBL4152272, “Synthesis and evaluation of novel triazolyl quinoline derivatives as potential antileishmanial agents” (Eur J Med Chem, 2018).

Series [1] deals with Leishmania donovani. As to the kind of experiment: Antileishmanial activity against Leishmania donovani MHOM/IN/80/Dd8 amastigotes harboring luciferase reporter gene infected in mouse J774A.1 cells after 72 hrs by luminescence assay. Type of series: functional, organism-based. (Reporter assays use an easily measured gene product as a stand-in for the process of interest.)
In series [2] the test system is Leishmania donovani. As to the kind of experiment: Antileishmanial activity against Leishmania donovani MHOM/IN/80/Dd8 promastigotes harboring luciferase reporter gene after 72 hrs by luminescence assay. The settings on record: MHOM/IN/80/Dd8, 72 h. Type of series: functional, organism-based.
In series [3] the test system is Leishmania donovani. As to the kind of experiment: Antileishmanial activity against Leishmania donovani MHOM/IN/80/Dd8 amastigotes infected in golden hamsters assessed as inhibition of parasite at 20 mg/kg, ip for 5 consecutive days measured on day 28 post last dose by Giemsa staining based assay relative to control. Type of series: functional, organism-based.
For series [4], the system named is Leishmania donovani. Put plainly: Antileishmanial activity against Leishmania donovani MHOM/IN/80/Dd8 amastigotes infected in golden hamsters assessed as inhibition of parasite at 20 mg/kg, ip for 5 consecutive days measured on day 7 post last dose by Giemsa staining based assay relative to control. Type of series: functional, organism-based.
A short description of series [5]: Cytotoxicity against mouse J774A.1 cells after 48 hrs by MTT assay. Type of series: cell-based, J774.A1. (Tetrazolium dyes change colour on reduction, which living cells bring about.)
The nature of series [6]: Selectivity index, ratio of CC50 for cytotoxicity against mouse J774A.1 cells to IC50 for Leishmania donovani MHOM/IN/80/Dd8 amastigotes harboring luciferase reporter gene infected in mouse J774A.1 cells. Type of series: toxicity, cell-based. As to conditions: read-out: Ratio CC50/IC50.
The subject of series [7] is Leishmania donovani. Put plainly: Antileishmanial activity against Leishmania donovani MHOM/IN/80/Dd8 amastigotes infected in golden hamsters assessed as inhibition of parasite at 50 mg/kg, ip for 5 consecutive days measured on day 7 post last dose by Giemsa staining based assay relative to control. The settings on record: for inhibition in vivo at 50 mg/kg: MHOM/IN/80/Dd8, ip, 168 h. Type of series: functional.

Series [8] has as its system Leishmania donovani. As to the kind of experiment: Antileishmanial activity against Leishmania donovani MHOM/IN/80/Dd8 amastigotes infected in golden hamsters assessed as inhibition of parasite at 50 mg/kg, ip for 5 consecutive days measured on day 28 post last dose by Giemsa staining based assay relative to control. Type of series: functional. As to conditions: MHOM/IN/80/Dd8, ip, 672 h.

Setting [9] is: Leishmania donovani, MHOM/IN/80/Dd8, J774.A1, 72 h, read-out: IC50.

Calls of active or inactive are those of the source. No cut-off for these calls is given here.

The IC50 is the concentration that gives 50% inhibition. On to `Cc1nc2ccccc2c(-c2ccccc2)c1C(=O)OCc1cn(-c2ccc(C(C)C)cc2)nn1`, for which the IC50 result in the series with Leishmania donovani [1] is “Not Active”; with Leishmania donovani [2], 5 µM.

`CCc1ccc(-n2cc(COC(=O)c3c(C)nc4ccccc4c3-c3ccccc3)nn2)cc1`: the half-inhibitory concentration (IC50) result is “Not Active” in the series with Leishmania donovani [1] and 8 µM with Leishmania donovani [2].

The term inhibition denotes the share of the control response that was lost under treatment. For the compound Sodium Stibogluconate, the inhibition is 85.3% in the series with Leishmania donovani [3] and 81.3% in the series on Leishmania donovani [4].

The CC50 is the concentration at which the toxic effect on the cells reaches its halfway point. The low end stands for harm at low concentration, the high end for better tolerance by the cells. `CCCCCCCCCCCCCCCCOP(=O)([O-])OCC[N+](C)(C)C` [MILTEFOSINE] registered a 50% cytotoxic concentration (CC50) at 48 h in series [5] of 56 µM. In addition, the IC50 in the series on Leishmania donovani [1] (setting [9]) came out at 8 µM; with Leishmania donovani [2], 1 µM. The selectivity ratio in series [6] was 6.72.

With `Cc1nc2ccc(Cl)cc2c(-c2ccccc2)c1C(=O)OCc1cn(-c2ccc(C(C)C)cc2)nn1`, the IC50 entry in the series on Leishmania donovani [1] is “Not Active”; in the series on Leishmania donovani [2], 3 µM.

Usually inhibition in vivo stands for the drop in the measured response relative to a control, in per cent. For the compound `Cc1nc2ccc(Cl)cc2c(-c2ccccc2)c1C(=O)OCc1cn(Cc2ccccc2)nn1`, the inhibition in vivo at 50 mg/kg came out at 37.8% in the series on Leishmania donovani [7] and 46.9% with Leishmania donovani [8]. The same compound returned a CC50 at 48 h in series [5] of 35 µM. The IC50 stood at 7 µM in the series on Leishmania donovani [1] (setting [9]) and 25 µM in the series with Leishmania donovani [2]. In series [6], the selectivity ratio was 4.5.

Regarding `Cc1nc2ccc(Cl)cc2c(-c2ccccc2)c1C(=O)OCc1cn(Cc2ccc([N+](=O)[O-])cc2)nn1`, the inhibition in vivo at 50 mg/kg in the series on Leishmania donovani [7] worked out at 6.63%; in the series on Leishmania donovani [8] it was 22.7%. The CC50 at 48 h in series [5] came to 75 µM. For the same compound, the IC50 in the series on Leishmania donovani [1] (setting [9]) came to 16 µM; in the series with Leishmania donovani [2], 5 µM. The selectivity ratio in series [6] was found to be 4.6.

Consider `CCc1ccc(-n2cc(COC(=O)c3c(C)nc4ccc(Cl)cc4c3-c3ccccc3)nn2)cc1`, for which the inhibition in vivo at 50 mg/kg stood at 9.76% with Leishmania donovani [7] and 17.3% with Leishmania donovani [8]. This compound registered a CC50 at 48 h in series [5] of 99 µM. Moreover, the IC50 turned out to be 14 µM with Leishmania donovani [1] (setting [9]) and 5 µM in the series on Leishmania donovani [2]. For the same compound, the selectivity ratio in series [6] came to 7.

Consider `Cc1nc2ccccc2c(-c2ccccc2)c1C(=O)OCc1cn(-c2ccc(F)cc2)nn1`, for which the IC50 entry in the series with Leishmania donovani [1] was “Not Active”; with Leishmania donovani [2], 22 µM.

`Cc1ccc(-n2cc(COC(=O)c3c(C)nc4ccccc4c3-c3ccccc3)nn2)cc1F` had a 50% cytotoxic concentration (CC50) at 48 h in series [5] of 36 µM. For the same compound, the half-inhibitory concentration (IC50) with Leishmania donovani [1] (setting [9]) turned out to be 17 µM; in the series on Leishmania donovani [2], 6 µM. Also, the selectivity ratio in series [6] stood at 2.12.

As to `Cc1nc2ccc(Cl)cc2c(-c2ccccc2)c1C(=O)OCc1cn(-c2ccc(F)cc2)nn1`, the IC50 result in the series with Leishmania donovani [1] was “Not Active”; in the series on Leishmania donovani [2], 17 µM.

For `COc1cccc(Cn2cc(COC(=O)c3c(C)nc4ccc(Cl)cc4c3-c3ccccc3)nn2)c1`, the IC50 entry in the series on Leishmania donovani [1] was “Not Active”; in the series with Leishmania donovani [2] it was 7 µM.

Take `Cc1nc2ccccc2c(-c2ccccc2)c1C(=O)OCc1cn(-c2ccc(C(C)(C)C)cc2)nn1`: the IC50 result in the series on Leishmania donovani [1] is “Not Active”; in the series on Leishmania donovani [2], 7 µM.

Take `Cc1ccc(-n2cc(COC(=O)c3c(C)nc4ccc(Cl)cc4c3-c3ccccc3)nn2)cc1`: the IC50 result with Leishmania donovani [1] was “Not Active”; in the series with Leishmania donovani [2], 10 µM.

As for `Cc1nc2ccc(Cl)cc2c(-c2ccccc2)c1C(=O)OCc1cn(Cc2ccc(F)cc2)nn1`, the 50% inhibitory concentration (IC50) entry in the series with Leishmania donovani [1] was “Not Active”; in the series with Leishmania donovani [2], 2 µM.

For the compound `Cc1ccc(-n2cc(COC(=O)c3c(C)nc4ccc(Cl)cc4c3-c3ccccc3)nn2)cc1F`, it took 34 µM to reach half-maximal cytotoxicity in series [5] (CC50 at 48 h). Further, the IC50 in the series with Leishmania donovani [1] (setting [9]) was determined as 12 µM; in the series on Leishmania donovani [2] it was 4 µM. In addition, the selectivity ratio in series [6] was 2.9.

For the compound `Cc1ccc(Cn2cc(COC(=O)c3c(C)nc4ccccc4c3-c3ccccc3)nn2)cc1`, the half-maximal cytotoxic concentration (CC50) at 48 h in series [5] was 41 µM. The IC50 is 22 µM with Leishmania donovani [1] (setting [9]) and 4 µM with Leishmania donovani [2]. Also, in series [6], the selectivity ratio was determined as 1.81.

The compound `COc1cccc(Cn2cc(COC(=O)c3c(C)nc4ccccc4c3-c3ccccc3)nn2)c1` had a CC50 at 48 h in series [5] of 36 µM. Moreover, the figures for the IC50 in the series on Leishmania donovani [1] (setting [9]) and with Leishmania donovani [2] were 34 µM and 16 µM, respectively. Further, the selectivity ratio in series [6] was found to be 1.

In the case of `Cc1ccc(Cn2cc(COC(=O)c3c(C)nc4ccc(Cl)cc4c3-c3ccccc3)nn2)cc1`, the IC50 result in the series on Leishmania donovani [1] is “Not Active”; in the series on Leishmania donovani [2], 34 µM.

Consider `Cc1nc2ccccc2c(-c2ccccc2)c1C(=O)OCc1cn(Cc2ccccc2F)nn1`, for which the figures for the IC50 result in the series with Leishmania donovani [1] and in the series on Leishmania donovani [2] were “Not Active” and 4 µM, respectively.

As to `Cc1nc2ccc(Cl)cc2c(-c2ccccc2)c1C(=O)OCc1cn(Cc2ccccc2F)nn1`, the values for the IC50 result in the series on Leishmania donovani [1] and in the series on Leishmania donovani [2] were “Not Active” and 24 µM, respectively.

As to `Cc1nc2ccccc2c(-c2ccccc2)c1C(=O)OCc1cn(Cc2ccccc2)nn1`, the IC50 result in the series with Leishmania donovani [1] is “Not Active”; with Leishmania donovani [2] it was 10 µM.

In turn, `Cc1nc2ccccc2c(-c2ccccc2)c1C(=O)OCc1cn(Cc2ccc([N+](=O)[O-])cc2)nn1` returned a CC50 at 48 h in series [5] of 42 µM. In addition, the IC50 in the series on Leishmania donovani [1] (setting [9]) stood at 18 µM; in the series on Leishmania donovani [2] it was 9 µM. The selectivity ratio in series [6] worked out at 2.3.

On to `Cc1nc2ccccc2c(-c2ccccc2)c1C(=O)OCc1cn(Cc2ccccc2C#N)nn1`, for which the IC50 result in the series on Leishmania donovani [1] is “Not Active”; in the series on Leishmania donovani [2], 10 µM.

For the compound `Cc1ccc(-n2cc(COC(=O)c3c(C)nc4ccccc4c3-c3ccccc3)nn2)cc1`, the inhibition entry in the series on Leishmania donovani [7] was “inactive”. Moreover, the inhibition in vivo at 50 mg/kg in the series with Leishmania donovani [8] is 40.4%. The compound also gave a half-maximal cytotoxic concentration (CC50) at 48 h in series [5] of 39 µM. For the same compound, the IC50 in the series on Leishmania donovani [1] (setting [9]) turned out to be 7 µM; in the series on Leishmania donovani [2], 16 µM. For the same compound, the selectivity ratio in series [6] amounted to 5.58.

Take `Cc1nc2ccccc2c(-c2ccccc2)c1C(=O)OCc1cn(Cc2ccc(F)cc2)nn1`: the IC50 result is “Not Active” with Leishmania donovani [1] and 6 µM in the series on Leishmania donovani [2].

With `Cc1nc2ccc(Cl)cc2c(-c2ccccc2)c1C(=O)OCc1cn(-c2ccc(C(C)(C)C)cc2)nn1`, the values for the IC50 entry with Leishmania donovani [1] and in the series on Leishmania donovani [2] were “Not Active” and 45 µM, respectively.
